The source of these data is patent publication US20260256921A1, “BIFUNCTIONAL MOLECULES TO TARGET DEGRADATION OF TUMOR NECROSIS FACTOR” (Biohaven Therapeutics Ltd., priority 2023, published 2026).

Assay [1] deals with T1, native human ASGPR protein (Homo sapiens, UniProt P07306).
T1 sequence (P07306 1-291): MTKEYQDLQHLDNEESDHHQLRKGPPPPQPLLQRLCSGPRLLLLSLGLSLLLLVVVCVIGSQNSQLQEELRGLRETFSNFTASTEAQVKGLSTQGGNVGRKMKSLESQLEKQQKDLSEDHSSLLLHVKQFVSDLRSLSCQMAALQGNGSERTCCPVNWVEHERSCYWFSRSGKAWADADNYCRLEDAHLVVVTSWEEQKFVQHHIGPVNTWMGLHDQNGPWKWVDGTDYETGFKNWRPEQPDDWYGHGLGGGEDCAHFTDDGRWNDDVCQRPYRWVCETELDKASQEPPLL
Nature of the assay: Octet (BLI) binding to ASGPR protein. Conditions: 1:1 binding model. The protocol: Protocol. The binding to native human ASGPR protein was measured by Bio-Layer Interferometry (BLI) using the Sartorius Octet 96e platform (Goettingen, Germany). The binding assay was performed using the Ni-NTA (NTA) Dip and Read Biosensors (Sartorius Catalog #18-5101; Goettingen, Germany) in OptiPlate-96F, Black, 96-well, Pinch bar design, plates (Perkin Elmer Catalog #6005270; Waltham, MA, USA) with the following steps: (1) 60 seconds of baseline in Assay Buffer (PBS (Gibco Catalog #10010; Pottstown, PA, USA)+0.05% Tween 20 (v/v) (Fisher BioReagents Catalog BP337-500; Pittsburgh, PA, USA)+0.1% BSA (w/v) (Rockland Catalog #BSA-50; Pottstown, PA, USA) +1 mM CaCl2; Sigma Catalog #21115; Burlington, MA, USA); (2) 600 seconds of loading with 100 nM ASGPR protein; (3) 60 seconds of baseline; (4) 180 seconds of association with a dilution series of ligand consisting of seven concentrations. The eighth tip in the column was run in Assay Buffer to serve as a reference sensor, the signal of which was subtracted from the sample sensors. (5) 180 seconds of dissociation in Assay Buffer.
(§1) Results. Data analysis was done using the Octet Data Analysis HT software (Sartorius, Goettingen, Germany). Processed data was globally fit to a 1:1 binding model for determination of the equilibrium dissociation constant (KD).

In assay [2] the target is T2, Biotinylated Human TNF-α Protein (active trimer) (Homo sapiens, UniProt P01375).
T2 construct: purchased ACROBiosystems TNA-H82E3
Nature of the assay: Octet (BLI) binding to TNF-α. To be noted: 1:1 binding model, N.B. = No Binding. The procedure: Protocol. The binding to IL-17A was measured by Bio-Layer Interferometry (BLI) using the Sartorius Octet 96e platform (Goettingen, Germany). The binding assay was performed using Streptavidin (SA) Dip and Read Biosensors (Sartorius Catalog #18-5019; Goettingen, Germany) in OptiPlate-96F, Black, 96-well, Pinch bar design, plates (Perkin Elmer Catalog #6005270; Waltham, MA, USA) with the following steps: (1) 60 seconds of baseline; (2) 600 seconds of loading with 50 nM TNF-α (Biotinylated Human TNF-α Protein, His, Avitag (active trimer); ACROBiosystems Catalog #TNA-H82E3; Newark, DE, USA); (3) 60 seconds of baseline; (4) 120 seconds of quenching with 50 μg/ml of Biocytin (Thermo Fisher Catalog #B1592; Waltham, MA, USA); (5) 60 seconds of baseline; (6) 180 seconds of association with a dilution series of ligand consisting of seven concentrations. The eighth tip in the column was run in Assay Buffer (Phosphate Buffered Saline (PBS; Gibco Catalog #10010; Pottstown, PA, USA)+0.05% Tween 20 (v/v) (Fisher BioReagents Catalog BP337-500; Pittsburgh, PA, USA)+0.1% BSA (w/v) (Rockland Catalog #BSA-50; Pottstown, PA, USA)) to serve as a reference sensor, the signal of which was subtracted from the sample sensors. (7) 180 seconds of dissociation in Assay Buffer.
as §1

Another assay concerns the target human TNF-α (Homo sapiens, UniProt P01375). Nature of the assay: TNF-α thermal melt assay. The class given is binding. To be noted: thermal melt, SYPRO Orange, Kd calculated as in Matulis et al.; read-out: TM Kd. More on the design: Amino acids 77-233 of Human TNF-α protein with an N-terminal GST tag; GST (N, cleaved yes); made in house; host or cells: Escherichia coli (BL21 NiCo). The procedure: Protein was purified using glutathione agarose purification columns (Pierce™, Waltham, MA, USA). Following purification, the GST tag was removed using HRV3c protease (Pierce™, Waltham, MA, USA) and the GST tag and the TNF-α were separated via ion exchange chromatography using a 20 mM HEPES pH 8.0 buffer system ramping from 0 to 1 M NaCl over 12 column volumes with 5 ml of Q Sepharose (HiScreen Q HP, Cytiva™, Marlborough, MA, USA). The final protein includes the amino acids GPLGSG at the N-terminus of the protein.
Protein was heated from 20° C. to 95° C. at one degree per minute in a Roche Opus384 qPCR machine.

Molecules are shown by their SMILES.

Sequence of human TNF-α (P01375 77-233): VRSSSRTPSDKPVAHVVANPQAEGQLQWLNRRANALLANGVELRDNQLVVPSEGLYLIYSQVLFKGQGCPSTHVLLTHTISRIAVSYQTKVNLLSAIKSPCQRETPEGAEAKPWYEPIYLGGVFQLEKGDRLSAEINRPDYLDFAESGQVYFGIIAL
T2 sequence (P01375 77-233 limits assumed): as the sequence (P01375 77-233) above

Turning to `CCC(=O)NC1COC(COCCOCCOCCOCCn2cc(COCC(COCc3cn(CCOCCOCCOCCOCC4OCC(NC(=O)CC)C(O)C4O)nn3)(COCc3cn(CCOCCOCCOCCOCC4OCC(NC(=O)CC)C(O)C4O)nn3)NC(=O)CNC(=O)CCOCCOCCC(=O)N3CCN(Cc4ccc(-c5c[nH]c6ccncc56)c(OCCc5ccc(-c6cccc7ccncc67)cc5)c4)CC3)nn2)C(O)C1O` (stereo not drawn) [Compound 103], the Kd was 2.13 nM in assay [1] and 1000 nM at human TNF-α. In addition, the “Octet Kd TNF-α” value in assay [2] is on record as “N.B”.

`CCC(=O)NC1COC(COCCOCCOCCOCCn2cc(COCC(COCc3cn(CCOCCOCCOCCOCC4OCC(NC(=O)CC)C(O)C4O)nn3)(COCc3cn(CCOCCOCCOCCOCC4OCC(NC(=O)CC)C(O)C4O)nn3)NC(=O)CNC(=O)CCC(=O)N3CCN(Cc4ccc(-c5c[nH]c6ccncc56)c(OCCc5ccc(-c6cccc7ccncc67)cc5)c4)CC3)nn2)C(O)C1O` (stereo not drawn) [Compound 104]: the Kd in assay [1] is 1 nM; on human TNF-α, 1000 nM. For the same compound, in assay [2], the “Octet Kd TNF-α” value is on record as “N.B”.

In the case of `CCC(=O)NC1COC(COCCOCCOCCOCCn2cc(COCCNC(=O)CNC(=O)CCOCCOCCOCCOCCOCCOCCC(=O)N3CCN(Cc4ccc(-c5c[nH]c6ccncc56)c(OCCc5ccc(-c6cccc7ccncc67)cc5)c4)CC3)nn2)C(O)C1O` (stereo not drawn) [Compound 105], the “Octet Kd ASGPR” value in assay [1] is on record as “weak”. Moreover, the “Octet Kd TNF-α” value in assay [2] was “N.B”. The Kd at human TNF-α was 65 nM.

Regarding `CCC(=O)N[C@H]1CO[C@H](COCCOCCOCCOCCn2cc(COCCNC(=O)CNC(=O)CCC(=O)N3CCN(Cc4ccc(-c5c[nH]c6ccncc56)c(OCCc5ccc(-c6cccc7ccncc67)cc5)c4)CC3)nn2)[C@H](O)[C@@H]1O` [Compound 106], the Kd in assay [1] is over 1000 nM; on human TNF-α, 50 nM. In assay [2], the “Octet Kd TNF-α” value is given as “N.B”.

As for `CCC(=O)N[C@H]1CO[C@H](COCCOCCOCCOCCn2cc(COCCNC(=O)CNC(=O)CCOCCOCCC(=O)N3CCN(Cc4ccc(-c5c[nH]c6ccncc56)c(OCCc5ccc(-c6cccc7ccncc67)cc5)c4)CC3)nn2)[C@H](O)[C@@H]1O` [Compound 107], the equilibrium dissociation constant (Kd) in assay [1] was 963 nM; at human TNF-α, 55 nM. The “Octet Kd TNF-α” value in assay [2] is recorded as “N.B”.
